Tests used:
[1] = Hygroscopicity test of the amorphous compound (1) (microbalance, weight change vs relative humidity); type: physicochemical; settings: 25° C., relative humidities of 5% to 90%; FIG. 3
Experimental: The hygroscopicity of the amorphous substance was evaluated using a microbalance (MB300W, VTI Corporation, USA). A sample placed in a glass holder was suspended in a device adjusted at 25° C., and a change in the weight thereof was followed over relative humidities of 5% to 90%. The sample weight was measured at measuring points (of the relative humidities) with an interval of 2 minutes; the weight at the time point of the amount of change reaching within 0.2% was defined as the final value.

[2] = Solubility test of the crystalline compound (1) and the amorphous compound (1) (apparent solubility in buffer, HPLC); type: physicochemical; settings: room temperature, 30 minutes standing after ultrasonication
Experimental: An excess amount of each sample was added to 0.5 mL of the following each test solution, which was then dispersed and dissolved by a ultrasonication operation for several minutes (about 3 minutes). After allowing to stand at room temperature for 30 minutes, the supernatant was separated by a centrifugation operation; the sample concentration in the supernatant as determined by an HPLC method was defined as an apparent solubility in each test solution.
pH 5: Diluted Mcllvaine buffer solution (Kanto Chemical Co. Inc.)
pH 7: GIBCO™ (Dulbecco's phosphate-buffered saline, Invitrogen Corporation)

[3] = pH 5 buffer (diluted McIlvaine buffer solution)
[4] = pH 7 buffer (Dulbecco's phosphate-buffered saline)

| Compound | Hygroscopicity (weight change over relative humidity) [1] | Apparent solubilites [2, 3] [mg/mL] | Apparent solubilites [2, 4] [mg/mL] |
| --- | --- | --- | --- |
| COc1cc(/C=C2\CCCN([C@@H](C)c3ccc(F)cc3)C2=O)ccc1-n1cnc(C)c1 [Amorphous compound (1), (3E)-1-[(1S)-1-(4-fluorophenyl)ethyl]-3-[3-methoxy-4-(4-methyl-1H-imidazol-1-yl)benzylidene]piperidin-2-one] | low hygroscopicity | 0.225 | 0.011 |
| COc1cc(/C=C2\CCCN([C@@H](C)c3ccc(F)cc3)C2=O)ccc1-n1cnc(C)c1 [Crystalline compound (1), (3E)-1-[(1S)-1-(4-fluorophenyl)ethyl]-3-[3-methoxy-4-(4-methyl-1H-imidazol-1-yl)benzylidene]piperidin-2-one] | – | 0.077 | 0.003 |
